Earlier results as cited in patent US11549199B2, “Active apparel and fabric and coverings” (priority 2017, dated 2023).

System: gram-positive and gram-negative bacteria

## Poly-hexamethylene biguanide (PHMB) hydrochloride
  activity against gram-positive and gram-negative bacteria: active
